According to PubChem BioAssay AID2060907 (Molecular Pharmacology Branch, DTP, NCI, 2025):
Blank lines part the entries; values can stand above or below the compound they belong to.

System: 388556-164-R-J1-PDC complex spheroid viability
Assay: Anticancer human tumor 388556-164-R-J1-PDC patient-derived colon adenocarcinoma cell line growth inhibition [RAS]
Settings: for IC50: curve of first compound; for viability, T/C: stronger effect = lower value
Text: RAS pathway inhibitors in Combinations in Complex Spheroids
A high-throughput screen of multi-cell type tumor spheroids was designed to identify active combinations of RAS pathway inhibitors and targeted small molecules. Complex spheroids include a stromal component modeled by human endothelial cells (HUVEC) and fibroblasts modeled by human mesenchymal stem cells (MSCs). The concentration ranges selected for each drug and investigational agent were based upon clinically achievable concentrations if the clinical Cmax of the agent was known.
Compounds. The drugs and investigational agents: abemaciclib (NSC768073), cobimetinib (NSC768068), divarasib (GDC6063, NSC841802), docetaxel (NSC628503), GDC-1971 (RLY-1971, NSC841576), gemcitabine (NSC613327), inavolisib (NSC800729), ipatasertib (NSC767898), KB-0742 (NSC834161), MRTX-1133 (NSC836407), osimertinib (NSC779217), RMC-4630 (NSC839698), RMC-6236 (NSC851965), RMC-6291 (NSC852671), Ro-3306 (NSC812927), sapanisertib (NSC764658), SN-38 (NSC673596), staurosporine (NSC755774), SY5609 (NSC837396), and tovorafenib (DAY101, NSC766906), were obtained from the National Cancer Institute (NCI) Developmental Therapeutics Program Chemical Repository. The FDA-approved anticancer drug set is available from the NCI Developmental Therapeutics Program. […] The stock solutions were prepared in dimethyl sulfoxide (DMSO, Sigma-Aldrich, St. Louis, MO, cat. D2650) at 800-fold the tested concentration and stored at -70 degrees C prior to their use. All drugs and investigational agents were tested over a range starting from a high concentration at or near the clinical Cmax and decreasing in half-log increments. If the clinical Cmax for an agent had not been determined, the highest concentration tested was 10 microM.
Cell Culture. All cells were maintained in an incubator at 37 degrees C and 5% CO2 with 95% humidity. The PDC lines were cultured according to standard operating procedures established by the NCI PDMR. All PDCs were thawed and cultured in Matrigel-coated flasks prepared with a working solution of 1X Ham's F-12 nutrient mix, without supplementation (Invitrogen, Waltham, MA, cat. 11765054), 100 U/mL penicillin-streptomycin (Invitrogen, cat. 15140122), and 2.5% Matrigel (Corning Inc., Corning, NY, cat. 354248) for the first three passages. The 362531-283-R-J2-PDC and 782815-120-R-J1-PDC lines were cultured in 6C/Colon 1B media, which includes advanced DMEM/F-12 (Thermo Fisher Scientific, cat. 12634028), 10 mM HEPES (Thermo Fisher Scientific, cat. 15630080), 1X GlutaMAX supplement (Thermo Fisher Scientific, cat. 35050061), 0.1 mg/mL primocin (InvivoGen, San Diego, CA, cat. ant-pm-2), 10% defined fetal bovine serum, heat inactivated (HyClone Laboratories Inc., Logan, UT, cat. SH30070.03HI), 50% L-WRN conditioned media (ATCC, cat. CRL-3276), 1.25 mM N-Acetyl-L-cysteine (Sigma-Aldrich, cat. A9165), 10 mM nicotinamide (Sigma-Aldrich, cat. N0636), 1X B-27 supplement (Thermo Fisher Scientific, cat. 17504044), 1X N-2 supplement (Thermo Fisher Scientific, cat. 17502048), 50 ng/mL human EGF (Thermo Fisher Scientific, cat. PHG0311), and 10 microM Y-27632 dihydrochloride (Tocris Bioscience, cat. 1254). The K12877-001-R-J1-PDC line was cultured in 6I media, which includes all 6C/Colon 1B media plus 10 ng/mL human FGF-10 (PeproTech, cat. 100-26), 1 ng/mL human FGF-2 (PeproTech, cat. 100-18B), 1 µM prostaglandin E2 (Tocris Bioscience, cat. 2296), […] hydrocortisone (Sigma-Aldrich, cat. H4001), and […] bovine insulin (Sigma-Aldrich, cat. I6634). The K86415-001-R-J1-PDC line was cultured in 6D media, which includes all 6C/Colon 1B media components minus the L-WRN conditioned media. The 485176-168-R4-J1-PDC was cultured in PANC media, which includes all 6C/Colon 1B media plus 100 ng/mL human FGF-10 (PeproTech, cat. 100-26), 500 nM SB-431542 (Selleckchem, cat. S1067), and 10 nM gastrin (Tocris Bioscience, cat. 3006). […]

[1] = second compound 0.0316 µM, first compound 0.0316 µM
[2] = second compound 0.0316 µM, first compound 0.1 µM
[3] = second compound 0.0316 µM, first compound 0.316 µM
[4] = second compound 0.0316 µM, first compound 1 µM
[5] = second compound 0.0316 µM, first compound 3.16 µM
[6] = second compound 0.0316 µM, first compound 10 µM
[7] = second compound 0.1 µM, first compound 0.0316 µM
[8] = second compound 0.1 µM, first compound 0.1 µM
[9] = second compound 0.1 µM, first compound 0.316 µM
[10] = second compound 0.1 µM, first compound 1 µM
[11] = second compound 0.1 µM, first compound 3.16 µM
[12] = second compound 0.1 µM, first compound 10 µM
[13] = second compound 0.316 µM, first compound 0.0316 µM
[14] = second compound 0.316 µM, first compound 0.1 µM
[15] = second compound 0.316 µM, first compound 0.316 µM
[16] = second compound 0.316 µM, first compound 1 µM
[17] = second compound 0.316 µM, first compound 3.16 µM
[18] = second compound 0.316 µM, first compound 10 µM
[19] = second compound 1 µM, first compound 0.0316 µM
[20] = second compound 1 µM, first compound 0.1 µM
[21] = second compound 1 µM, first compound 0.316 µM
[22] = second compound 1 µM, first compound 1 µM
[23] = second compound 1 µM, first compound 3.16 µM
[24] = second compound 1 µM, first compound 10 µM
[25] = second compound 3.16 µM, first compound 0.0316 µM
[26] = second compound 3.16 µM, first compound 0.1 µM
[27] = second compound 3.16 µM, first compound 0.316 µM
[28] = second compound 3.16 µM, first compound 1 µM
[29] = second compound 3.16 µM, first compound 3.16 µM
[30] = second compound 3.16 µM, first compound 10 µM
[31] = second compound 10 µM, first compound 0.0316 µM
[32] = second compound 10 µM, first compound 0.1 µM
[33] = second compound 10 µM, first compound 0.316 µM
[34] = second compound 10 µM, first compound 1 µM
[35] = second compound 10 µM, first compound 3.16 µM
[36] = second compound 10 µM, first compound 10 µM
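Further: spheroids exposed to compound for 7 days before readout.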
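Wherever viability, T/C is given: 100% = DMSO vehicle control luminescence.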

IC50 (second compound 0.0316 µM): > 10 µM | IC50 (second compound 0.1 µM): > 10 µM | IC50 (second compound 0.316 µM): > 10 µM | IC50 (second compound 1 µM): 9.42 µM | IC50 (second compound 3.16 µM): 8.92 µM | IC50 (second compound 10 µM): 5.28 µM
SMILES: CC1(O)CCCC1n1c(=O)c(C(F)F)cc2cnc(NC3CCN(S(C)(=O)=O)CC3)nc21 (stereo unspecified) + C#Cc1c(F)ccc2cc(O)cc(-c3ncc4c(N5CC6CCC(C5)N6)nc(OCC56CCCN5CC(F)C6)nc4c3F)c12
viability, T/C [1]: 99.9% | viability, T/C [2]: 101% | viability, T/C [3]: 97.3% | viability, T/C [4]: 108% | viability, T/C [5]: 111% | viability, T/C [6]: 76.7% | viability, T/C [7]: 108% | viability, T/C [8]: 103% | viability, T/C [9]: 99.4% | viability, T/C [10]: 97.3% | viability, T/C [11]: 104% | viability, T/C [12]: 77.2% | viability, T/C [13]: 98.5% | viability, T/C [14]: 108% | viability, T/C [15]: 89.4% | viability, T/C [16]: 107% | viability, T/C [17]: 112% | viability, T/C [18]: 62.4% | viability, T/C [19]: 92.5% | viability, T/C [20]: 99.1% | viability, T/C [21]: 77.4% | viability, T/C [22]: 94.8% | viability, T/C [23]: 97.4% | viability, T/C [24]: 47.6% | viability, T/C [25]: 86.2% | viability, T/C [26]: 78.6% | viability, T/C [27]: 78.9% | viability, T/C [28]: 82.1% | viability, T/C [29]: 87.9% | viability, T/C [30]: 46.6% | viability, T/C [31]: 69.8% | viability, T/C [32]: 72.6% | viability, T/C [33]: 74.8% | viability, T/C [34]: 76.2% | viability, T/C [35]: 56.3% | viability, T/C [36]: 42.1%

IC50 (second compound 0.0316 µM): > 1 µM | IC50 (second compound 0.1 µM): > 1 µM | IC50 (second compound 0.316 µM): > 1 µM | IC50 (second compound 1 µM): > 1 µM | IC50 (second compound 3.16 µM): > 1 µM | IC50 (second compound 10 µM): 0.208 µM
SMILES: CCN1CCN(Cc2ccc(Nc3ncc(F)c(-c4cc(F)c5nc(C)n(C(C)C)c5c4)n3)nc2)CC1 + C#Cc1c(F)ccc2cc(O)cc(-c3ncc4c(N5CC6CCC(C5)N6)nc(OCC56CCCN5CC(F)C6)nc4c3F)c12
viability, T/C (second compound 0.0316 µM, first compound 0.00316 µM): 106% | viability, T/C (second compound 0.0316 µM, first compound 0.01 µM): 106% | viability, T/C [1]: 106% | viability, T/C [2]: 103% | viability, T/C [3]: 92.3% | viability, T/C [4]: 103% | viability, T/C (second compound 0.1 µM, first compound 0.00316 µM): 110% | viability, T/C (second compound 0.1 µM, first compound 0.01 µM): 100% | viability, T/C [7]: 94.8% | viability, T/C [8]: 89.2% | viability, T/C [9]: 91.6% | viability, T/C [10]: 99.5% | viability, T/C (second compound 0.316 µM, first compound 0.00316 µM): 100% | viability, T/C (second compound 0.316 µM, first compound 0.01 µM): 99.2% | viability, T/C [13]: 81.1% | viability, T/C [14]: 88% | viability, T/C [15]: 93.3% | viability, T/C [16]: 77.4% | viability, T/C (second compound 1 µM, first compound 0.00316 µM): 92.5% | viability, T/C (second compound 1 µM, first compound 0.01 µM): 96.3% | viability, T/C [19]: 73.2% | viability, T/C [20]: 82.5% | viability, T/C [21]: 85.6% | viability, T/C [22]: 61.6% | viability, T/C (second compound 3.16 µM, first compound 0.00316 µM): 78.3% | viability, T/C (second compound 3.16 µM, first compound 0.01 µM): 73.9% | viability, T/C [25]: 76.3% | viability, T/C [26]: 74.3% | viability, T/C [27]: 71% | viability, T/C [28]: 54.9% | viability, T/C (second compound 10 µM, first compound 0.00316 µM): 76.8% | viability, T/C (second compound 10 µM, first compound 0.01 µM): 67.8% | viability, T/C [31]: 72.7% | viability, T/C [32]: 57.7% | viability, T/C [33]: 45.5% | viability, T/C [34]: 37.4%

IC50 (second compound 0.0316 µM): > 10 µM | IC50 (second compound 0.1 µM): > 10 µM | IC50 (second compound 0.316 µM): > 10 µM | IC50 (second compound 1 µM): > 10 µM | IC50 (second compound 3.16 µM): > 10 µM | IC50 (second compound 10 µM): > 10 µM
SMILES: C[C@@H](NC(=O)c1ncnc(N)c1Cl)c1ncc(C(=O)Nc2cc(C(F)(F)F)c(Cl)cn2)s1 + C#Cc1c(F)ccc2cc(O)cc(-c3ncc4c(N5CC6CCC(C5)N6)nc(OCC56CCCN5CC(F)C6)nc4c3F)c12
viability, T/C [1]: 112% | viability, T/C [2]: 124% | viability, T/C [3]: 117% | viability, T/C [4]: 116% | viability, T/C [5]: 116% | viability, T/C [6]: 111% | viability, T/C [7]: 114% | viability, T/C [8]: 112% | viability, T/C [9]: 120% | viability, T/C [10]: 113% | viability, T/C [11]: 122% | viability, T/C [12]: 108% | viability, T/C [13]: 113% | viability, T/C [14]: 115% | viability, T/C [15]: 101% | viability, T/C [16]: 117% | viability, T/C [17]: 112% | viability, T/C [18]: 77.1% | viability, T/C [19]: 105% | viability, T/C [20]: 104% | viability, T/C [21]: 98.2% | viability, T/C [22]: 111% | viability, T/C [23]: 108% | viability, T/C [24]: 79.2% | viability, T/C [25]: 103% | viability, T/C [26]: 84% | viability, T/C [27]: 84% | viability, T/C [28]: 105% | viability, T/C [29]: 96.5% | viability, T/C [30]: 70% | viability, T/C [31]: 74% | viability, T/C [32]: 80.4% | viability, T/C [33]: 72.8% | viability, T/C [34]: 96% | viability, T/C [35]: 63.9% | viability, T/C [36]: 74.2%
